≈ marks a conversion by molar mass, not a printed value. Like-named read-outs stand apart in the source and are kept apart here.
Tests used:
Format in all cases: cell-based
Botrtyis cinerea (Bc) = assay: In vitro pathogen growth inhibition assay, Bc; details: 48 h
Method in brief: (§1)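 Spores in 17% V8 liquid medium, or 1.5 mm Rs mycelial plugs in ¼ PDB, incubated with compound; final concentration checked by OD600 for precipitation. OD readings at 24 and 48 h, blank-subtracted, plus visual ratings; value is concentration giving ≥90% growth inhibition.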

[1] = tested on: Collectotrichum graminicola (Cg); assay: In vitro pathogen growth inhibition assay, Cg; details: 48 h
Method in brief: as §1

Diplodia maydis (Dm) = assay: In vitro pathogen growth inhibition assay, Dm; details: Stenocarpella maydis, 48 h
Method in brief: (§2)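 Spores of Dm, Fv and Pc were diluted in 17% V8 liquid medium; Rs used 1.5 mm mycelial plugs in ¼ PDB. Compounds from 2.5 mg/ml DMSO stocks were combined with inoculum, growth was read by OD600 at 24 and 48 h with blank subtraction, and the reported value is the concentration giving ≥90% inhibition.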

[2] = tested on: Fusarium moniliforme (Fm); assay: In vitro pathogen growth inhibition assay, Fm; details: Fusarium verticillioides
Method in brief: as §1

[3] = tested on: Fusarium virguliforme (Fv); assay: In vitro pathogen growth inhibition assay, Fv
Method in brief: as §2

[4] = tested on: Phytophthora capsici (Pc); assay: In vitro pathogen growth inhibition assay, Pc; details: 48 h
Method in brief: as §2

Rhizoctonia solani (Rs) = assay: In vitro pathogen growth inhibition assay, Rs (mycelial plugs); details: Rhizoctonia solani, 48 h
Method in brief: as §2

Septoria tritici (St) = assay: In vitro pathogen growth inhibition assay, St; details: Zymoseptoria tritici, 48 h
Method in brief: as §1

[5] = ≥90% growth inhibition, 48 hours, vs 2% DMSO control, read-out: Compound Concentration (ppm) sufficient for ≥90% inhibition of Bc
[6] = ≥90% growth inhibition, 48 hours, vs 2% DMSO control, read-out: Compound Concentration (ppm) sufficient for ≥90% inhibition of Cg
[7] = ≥90% growth inhibition, 48 hours, vs 2% DMSO control, read-out: Compound Concentration (ppm) sufficient for ≥90% inhibition of Dm
[8] = ≥90% growth inhibition, 48 hours, vs 2% DMSO control, read-out: Compound Concentration (ppm) sufficient for ≥90% inhibition of Fm
[9] = ≥90% growth inhibition, 48 hours, vs 2% DMSO control, read-out: Compound Concentration (ppm) sufficient for ≥90% inhibition of Fv
[10] = ≥90% growth inhibition, 48 hours, vs 2% DMSO control, read-out: Compound Concentration (ppm) sufficient for ≥90% inhibition of Pc
[11] = ≥90% growth inhibition, mycelial plugs, 48 hours, vs 2% DMSO control, read-out: Compound Concentration (ppm) sufficient for ≥90% inhibition of Rs
[12] = ≥90% growth inhibition, 48 hours, vs 2% DMSO control, read-out: Compound Concentration (ppm) sufficient for ≥90% inhibition of St
[13] = concentration sufficient to ≥90% inhibition of growth, 48 hours vs 2% DMSO control, read-out: Compound Concentration (ppm) for ≥90% inhibition, Bc
[14] = concentration sufficient to ≥90% inhibition of growth, 48 hours vs 2% DMSO control, read-out: Compound Concentration (ppm) for ≥90% inhibition, Cg
[15] = concentration sufficient to ≥90% inhibition of growth, 48 hours vs 2% DMSO control, read-out: Compound Concentration (ppm) for ≥90% inhibition, Dm
[16] = concentration sufficient to ≥90% inhibition of growth, 48 hours vs 2% DMSO control, read-out: Compound Concentration (ppm) for ≥90% inhibition, Fm
[17] = concentration sufficient to ≥90% inhibition of growth, 48 hours vs 2% DMSO control, read-out: Compound Concentration (ppm) for ≥90% inhibition, Fv
[18] = concentration sufficient to ≥90% inhibition of growth, 48 hours vs 2% DMSO control, read-out: Compound Concentration (ppm) for ≥90% inhibition, Pc
[19] = concentration sufficient to ≥90% inhibition of growth, 48 hours vs 2% DMSO control, read-out: Compound Concentration (ppm) for ≥90% inhibition, Rs
[20] = concentration sufficient to ≥90% inhibition of growth, 48 hours vs 2% DMSO control, read-out: Compound Concentration (ppm) for ≥90% inhibition, St

| Compound | IC90 (Botrtyis cinerea (Bc); [5]) | IC90 [1, 6] | IC90 (Diplodia maydis (Dm); [7]) | IC90 [2, 8] | IC90 [3, 9] | IC90 [4, 10] | IC90 (Rhizoctonia solani (Rs); [11]) | IC90 (Septoria tritici (St); [12]) | IC90 (Botrtyis cinerea (Bc); [13]) | IC90 [1, 14] | IC90 (Diplodia maydis (Dm); [15]) | IC90 [2, 16] | IC90 [3, 17] | IC90 [4, 18] | IC90 (Rhizoctonia solani (Rs); [19]) | IC90 (Septoria tritici (St); [20]) |
| --- | --- | --- | --- | --- | --- | --- | --- | --- | --- | --- | --- | --- | --- | --- | --- | --- |
| CCOC(=O)c1ccc(F)cc1[C@H](Cn1c(=O)n(C(C)(C)C(=O)NC(C)C)c(=O)c2c(C)c(-n3nccn3)sc21)OCCC#N [Compound I-335] | 10 µg/mL (≈ 15.6 µM) | 50 µg/mL (≈ 78.2 µM) | 50 µg/mL (≈ 78.2 µM) | 2 µg/mL (≈ 3.13 µM) | 2 µg/mL (≈ 3.13 µM) | > 50 µg/mL | 10 µg/mL (≈ 15.6 µM) | > 50 µg/mL |  |  |  |  |  |  |  |  |
| Cc1c(-n2cccn2)sc2c1c(=O)n(C(C)(C)C(=O)NC(C)C)c(=O)n2CCc1cc(F)ccc1OCCC#N [Compound I-336] |  |  |  |  |  |  |  |  | 50 µg/mL (≈ 88.2 µM) | > 50 µg/mL | > 50 µg/mL | 10 µg/mL (≈ 17.6 µM) | 10 µg/mL (≈ 17.6 µM) | > 50 µg/mL | > 50 µg/mL | > 50 µg/mL |
| Cc1c(-n2cccn2)sc2c1c(=O)n(C(C)(C)C(=O)NC(C)C)c(=O)n2CCc1cc(F)ccc1OCCO [Compound I-337] |  |  |  |  |  |  |  |  | 50 µg/mL (≈ 89.7 µM) | > 50 µg/mL | > 50 µg/mL | 10 µg/mL (≈ 17.9 µM) | 10 µg/mL (≈ 17.9 µM) | > 50 µg/mL | 10 µg/mL (≈ 17.9 µM) | > 50 µg/mL |
| Cc1c(-n2nccn2)sc2c1c(=O)n(C(C)(C)C(=O)NC(C)C)c(=O)n2CCc1cc(F)ccc1OC(C)C [Compound I-338] | 2 µg/mL (≈ 3.59 µM) | 10 µg/mL (≈ 18 µM) | 2 µg/mL (≈ 3.59 µM) | 0.08 µg/mL (≈ 0.144 µM) | 0.08 µg/mL (≈ 0.144 µM) | > 50 µg/mL | 10 µg/mL (≈ 18 µM) | > 50 µg/mL |  |  |  |  |  |  |  |  |

The remaining lines, values ahead:

| IC90 (Botrtyis cinerea (Bc); [5]) | IC90 [1, 6] | IC90 (Diplodia maydis (Dm); [7]) | IC90 [2, 8] | IC90 [3, 9] | IC90 [4, 10] | IC90 (Rhizoctonia solani (Rs); [11]) | IC90 (Septoria tritici (St); [12]) | IC90 (Botrtyis cinerea (Bc); [13]) | IC90 [1, 14] | IC90 (Diplodia maydis (Dm); [15]) | IC90 [2, 16] | IC90 [3, 17] | IC90 [4, 18] | IC90 (Rhizoctonia solani (Rs); [19]) | IC90 (Septoria tritici (St); [20]) | Compound |
| --- | --- | --- | --- | --- | --- | --- | --- | --- | --- | --- | --- | --- | --- | --- | --- | --- |
| 10 µg/mL (≈ 17.5 µM) | > 50 µg/mL | > 50 µg/mL | 2 µg/mL (≈ 3.49 µM) | 2 µg/mL (≈ 3.49 µM) | > 50 µg/mL | 50 µg/mL (≈ 87.3 µM) | > 50 µg/mL |  |  |  |  |  |  |  |  | CCOC(=O)c1sc2c(c1C)c(=O)n(C(C)(C)C(=O)NC(C)C)c(=O)n2CCc1cc(F)ccc1OCCC#N [Compound I-339] |
| 10 µg/mL (≈ 17.6 µM) | 50 µg/mL (≈ 88.1 µM) | 50 µg/mL (≈ 88.1 µM) | 2 µg/mL (≈ 3.52 µM) | 2 µg/mL (≈ 3.52 µM) | > 50 µg/mL | 50 µg/mL (≈ 88.1 µM) | > 50 µg/mL |  |  |  |  |  |  |  |  | Cc1c(-n2nccn2)sc2c1c(=O)n(C(C)(C)C(=O)NC(C)C)c(=O)n2CCc1cc(F)ccc1OCCC#N [Compound I-340] |
|  |  |  |  |  |  |  |  | > 50 µg/mL | > 50 µg/mL | > 50 µg/mL | > 50 µg/mL | > 50 µg/mL | > 50 µg/mL | > 50 µg/mL | > 50 µg/mL | COc1ccc(F)cc1[C@@H](CCCC#N)Cn1c(=O)n(C(C)(C)C(=O)NC(C)C)c(=O)c2c(C)c(-n3ccnn3)sc21 [Compound I-341] |

Reference: US10941157B2, “Pesticidal compositions and uses thereof” (Gilead Apollo, LLC, priority 2015, dated 2021)
